Laboratory results reported in patent publication EP0547508A1, “Use of xanthine derivatives for the stabilisation of the auto-regulation of cerebral blood flow” (priority 1991, dated 1993).

Test system: Ratten
Experiment: Cerebral autoregulation in rats under adrenaline-induced acute hypertension, with or without carotid occlusion (ischaemia/reperfusion)
Format: in vivo
From the text: Es werden 36 Ratten unterteilt in drei Gruppen operiert. Die erste Gruppe dient als Kontrolle, d.h. es wird eine akute Hypertonie erzeugt, ohne daß die Carotiden abgeklemmt werden. Die zweite Gruppe wird während der Ischämie und die dritte Gruppe während der Reperfusion mit Adrenalin stimuliert. In jeder Gruppe werden jeweils 6 Tiere mit der Verbindung 1 als Dauerinfusion behandelt.
Bei einem mittleren arteriellen Druck von 170 mmHg wird in der Kontrollgruppe die cerebrale Autoregulation durchbrochen (entsprechend 3 µg/kg Adrenalin (Firma Sigma)). Die dreifache Dosis führt bei einem Blutdruck von 200 mmHg zum Tod der Tiere. Im Gegensatz dazu ist in der mit Verbindung 1 behandelten Gruppe die dreifache Konzentration und ein mittlerer Druck von 180 mmHg erforderlich um an die Grenze der Autoregulation zu kommen. Der Verschluß beider Carotiden führt bei den Tieren, die mit Verbindung 1 behandelt wurden, zu einer höheren Restdurchblutung (25 %) als bei den Kontrolltieren. Während der Reperfusion bleibt die Gehirndurchblutung in der Kontrollgruppe auf dem niedrigen Niveau von 23 %. Die Autoregulation wird bereits bei 150 mmHg durchbrochen (entsprechend 3 µg/kg/Adrenalin). […] Erst bei 180 mmHg kommt es zum Durchbruch der Autoregulation.
Alle Kontrolltiere verstarben nach einer Dosis von 10 µg/kg Adrenalin. Die letale Dosis für mit Verbindung 1 behandelte Tiere liegt bei 30 µg/kg Adrenalin. Zusammenfassend läßt sich feststellen, daß die mit Verbindung 1 behandelten Tiere - im Vergleich mit den Kontrolltieren - höhere Blutdruckspitzen und Blutdruckabsenkungen tolerieren und deren Gehirndurchblutungsautoregulation erst bei der 3-fachen Adrenalinkonzentration durchbrochen wird.

Question: `CCCn1cnc2c1c(=O)n(CCCCC(C)=O)c(=O)n2C` [Verbindung 1, 1-(5-Oxohexyl)-3-methyl-7-n-propyl-xanthin] was tested. Which “mittlerer Druck erforderlich um an die Grenze der Autoregulation zu kommen” value (acute hypertension by Adrenalin, carotids not clamped, Verbindung 1 as continuous infusion, control group 170 mmHg) did it give?
Answer: The value was 180 mmHg.

Question: What about the “Adrenalin-Konzentration erforderlich um an die Grenze der Autoregulation zu kommen” value (acute hypertension, carotids not clamped, relative to control group (3 µg/kg Adrenalin)) of the same molecule?
Answer: Its value is “dreifache”.

Question: And the “Durchbruch der Autoregulation” value (during reperfusion, Adrenalin stimulation, control group 150 mmHg)?
Answer: Its value is 180 mmHg.

Question: What about the Restdurchblutung (occlusion of both carotids (ischaemia), higher than in control animals) of the same molecule?
Answer: Its Restdurchblutung is 25%.

Question: And the “Gehirndurchblutung während der Reperfusion” value (reperfusion after carotid occlusion, control group stays at 23 %)?
Answer: Its value is “erreichen sofort wieder das präischämische Ausgangsniveau”.

Question: What about the “Adrenalinkonzentration bei der die Gehirndurchblutungsautoregulation durchbrochen wird” value (summary, fold compared with control animals) of the same molecule?
Answer: Its value is 3.
